Each compound was assayed against FGFR2 (Homo sapiens (Human), UniProt P21802) (assay: FGFR2 Biochemical Caliper Assay). Conditions: not given.
Procedure: Compounds of the present invention were also tested in a FGFR2 Biochemical Caliper Assay. Compounds were prepared in 10 mM DMSO solution and serially diluted into 11 concentrations by 3-fold dilution. […] 5 uL of ATP solution (100 uM) was added to start the reaction and the plate was incubated for 90 minutes, then 70 uL of stopping buffer (0.5M EDTA) was added to terminate the reaction. Each well was analyzed using EZ reader.

FGFR2, sequence (P21802 22-821): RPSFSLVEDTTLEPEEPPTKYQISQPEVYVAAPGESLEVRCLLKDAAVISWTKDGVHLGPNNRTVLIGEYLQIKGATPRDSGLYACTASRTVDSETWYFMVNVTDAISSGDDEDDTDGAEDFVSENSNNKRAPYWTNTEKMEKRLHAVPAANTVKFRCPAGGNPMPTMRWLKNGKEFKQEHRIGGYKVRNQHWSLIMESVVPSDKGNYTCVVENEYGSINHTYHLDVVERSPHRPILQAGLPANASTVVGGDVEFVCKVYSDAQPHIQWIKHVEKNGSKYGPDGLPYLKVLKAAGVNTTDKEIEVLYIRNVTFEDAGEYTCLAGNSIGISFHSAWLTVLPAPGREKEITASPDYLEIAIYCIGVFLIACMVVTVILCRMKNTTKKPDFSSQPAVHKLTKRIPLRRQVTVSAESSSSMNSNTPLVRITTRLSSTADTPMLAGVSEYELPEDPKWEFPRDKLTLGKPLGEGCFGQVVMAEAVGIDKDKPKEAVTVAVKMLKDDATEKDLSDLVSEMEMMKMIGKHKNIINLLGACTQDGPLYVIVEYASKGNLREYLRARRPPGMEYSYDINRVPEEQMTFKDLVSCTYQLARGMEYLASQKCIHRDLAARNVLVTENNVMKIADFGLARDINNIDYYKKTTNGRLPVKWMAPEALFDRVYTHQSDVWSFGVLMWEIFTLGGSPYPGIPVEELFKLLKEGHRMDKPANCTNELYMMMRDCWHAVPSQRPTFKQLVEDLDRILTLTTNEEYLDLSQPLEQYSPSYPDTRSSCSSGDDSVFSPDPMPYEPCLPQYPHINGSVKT

SMILES | IC50 [nM]
C=CC(=O)N1CCCC(c2c(-c3ccc(Oc4cccc(C)n4)c(OC)c3)c3c(N)ncnc3n2C)C1 (stereo not drawn) [Example 661] | 1000 to 100000
C=CC(=O)N1CCCC(c2c(-c3ccc(Oc4cccc(C)n4)cc3)c3c(N)ncnc3n2C)C1 (stereo not drawn) [Example 663] | 250 to 1000
C=C(C)C(=O)Nc1ccc(-c2c(-c3ccc(S(=O)(=O)NCC(C)C)cc3)c3c(N)ncnc3n2C)cc1 [Example 303] | 250 to 1000
C=C(C)C(=O)Nc1ccc(-c2c(-c3ccc4sc(C(=O)N(C)C)cc4c3)c3c(N)ncnc3n2C)cc1 [Example 180] | 250 to 1000
C[C@H](Cl)C(=O)Nc1ccc(-c2c(-c3ccc(C(=O)N4CCCC4)cc3)c3c(N)ncnc3n2C)cc1 (single isomer, unassigned) [Example 560] | 100 to 250
C=C(C)C(=O)Nc1ccc(-c2c(-c3ccc(S(=O)(=O)N(C)C4CCCC4)cc3)c3c(N)ncnc3n2C)cc1 [Example 312] | 250 to 1000
C=CC(=O)N1CCC(c2c(-c3cnn(C(C)C)c3)c3c(N)ncnc3n2C)C1 (stereo not drawn) [Example 737] | 1000 to 100000
C=C(C)C(=O)Nc1ccc(-c2c(-c3cc(C)c(Oc4nccc(C)n4)c(OC)c3)c3c(N)ncnc3n2C)cc1 [Example 497] | 100 to 250
C=C(CN1CCOCC1)C(=O)N1CCC(n2cc(-c3c(-c4ccc(Oc5cccc(C)n5)cc4)c4c(N)ncnc4n3C)cn2)CC1 [Example 643] | 250 to 1000
C=CC(=O)N1CCC(c2c(-c3ccc(OC)cc3)c3c(N)ncnc3n2C)C1 (stereo not drawn) [Example 702] | 250 to 1000
C=C(C)C(=O)Nc1ccc(-c2c(-c3ccc(C(=O)N(C)CC4(F)COC4)cc3)c3c(N)ncnc3n2C)cc1 [Example 411] | 250 to 1000
C=CC(=O)N1CCC(n2cc(-c3c(-c4ccc(Oc5cccc(C)c5)c(OC)c4)c4c(N)ncnc4n3C)cn2)CC1 [Example 672] | 100 to 250

Continued, values first:

IC50 [nM] | SMILES
< 100 | C=CC(=O)Nc1ccc(-c2c(C3=CCC(C(=O)NC4CCCC4)CC3)c3c(N)ncnc3n2C)cc1 (stereo not drawn) [Example 298]
< 100 | C=C(C)C(=O)Nc1ccc(-c2c(-c3ncc(Oc4nccc(C)n4)cc3F)c3c(N)ncnc3n2C)cc1 [Example 572]
< 100 | C=C(C)C(=O)Nc1ccc(-c2c(-c3ccc(C(=O)NC4CCCOC4)cc3)c3c(N)ncnc3n2C)cc1 (stereo not drawn) [Example 327]
< 100 | C=CC(=O)Nc1ccc(-c2c(-c3ccc(Oc4ncc(CO)cn4)c(OC)c3)c3c(N)ncnc3n2C)cc1 [Example 60]
< 100 | C=CC(=O)Nc1ccc(-c2c(-c3ccc(Oc4ncccn4)c(CC)c3)c3c(N)ncnc3n2C)cc1 [Example 48]
< 100 | C=C(C)C(=O)Nc1ccc(-c2c(-c3ccc(C(=O)N4CCCC[C@H]4C)cc3)c3c(N)ncnc3n2C)cc1 [Example 293]
< 100 | C=C(C)C(=O)Nc1ccc(-c2c(-c3ccc(Oc4nccc(C)n4)c(F)c3)c3c(N)ncnc3n2[C@@H]2CCOC2)cc1 (single isomer, unassigned) [Example 539]
< 100 | C=CC(=O)N1CCC(c2c(-c3ccc(S(=O)(=O)C4CC4)cc3)c3c(N)ncnc3n2C)C1 (stereo not drawn) [Example 785]
< 100 | C=C(CN(C)C)C(=O)Nc1ccc(-c2c(-c3ccc(Oc4cccc(C)n4)cc3)c3c(N)ncnc3n2C)cc1 [Example 485]
< 100 | C=C(C)C(=O)Nc1ccc(-c2c(-c3ccc(C(=O)N(C)CC(C)C)cc3)c3c(N)ncnc3n2C)cc1 [Example 410]
< 100 | C=CC(=O)N1CC=C(c2c(-c3ccc(Oc4cncc(C)c4)c(OC)c3)c3c(N)ncnc3n2C)CC1 [Example 678]
< 100 | C=CC(=O)N1CCC(c2c(-c3ccc(SC4CCCC4)cc3)c3c(N)ncnc3n2C)C1 (stereo not drawn) [Example 749]
< 100 | C=C(C)C(=O)Nc1ccc(-c2c(-c3ccc(Oc4nccc(C)n4)c(F)c3)c3c(N)ncnc3n2C2CCCO2)cc1 (stereo not drawn) [Example 524]
< 100 | Cc1cccc(Oc2ccc(-c3c(-c4cnn(C5CCN(C(=O)/C=C/CN(C)C)CC5)c4)n(C)c4ncnc(N)c34)cc2)n1 [Example 621]
< 100 | C=C(C)C(=O)Nc1ccc(-c2c(-c3ccc(Oc4cccc(N)n4)cc3)c3c(N)ncnc3n2C)cc1 [Example 379]

What follows are compounds tested on SNU16 cells (assay: SNU16 Cancer Cell Line Proliferation Assay). Conditions: Homo sapiens; SNU-16 cells.
Format: cell-based
Procedure: Compounds of the present invention were also tested in a SNU16 Cancer Cell Line Proliferation Assay, Test compounds were prepared in a 10 mM DMSO stock solution. 45 uL of stock solution was transferred to a 384 well plate, and a 3-fold 11-point dolution was performed. SNU16 cells in a 384 well cell culture plate were seeded and incubated at 37 degrees for 24 hours. 40 nL of each concentration of compound was transferred from the compound plate to a corresponding well in the cell culture plate by Echo550 liquid handler. The plates were incubated for 96 hours, then equilibrated to room temperature for 15 minutes. 20 uL of CellTiter Glo reagent is added into each well, then the plate was shaken gently for 30 minutes at room temperature. Chemiluminescence was then read on an EnVision reader.

SMILES | IC50 [nM]
C=CC(=O)N1CCCC(c2c(-c3ccc(Oc4cccc(C)n4)c(OC)c3)c3c(N)ncnc3n2C)C1 (stereo not drawn) [Example 661] | 1000 to 100000
C=CC(=O)N1CCCC(c2c(-c3ccc(Oc4cccc(C)n4)cc3)c3c(N)ncnc3n2C)C1 (stereo not drawn) [Example 663] | 250 to 1000
C=C(C)C(=O)Nc1ccc(-c2c(-c3ccc(S(=O)(=O)NCC(C)C)cc3)c3c(N)ncnc3n2C)cc1 [Example 303] | 250 to 1000
C=C(C)C(=O)Nc1ccc(-c2c(-c3ccc4sc(C(=O)N(C)C)cc4c3)c3c(N)ncnc3n2C)cc1 [Example 180] | 100 to 250
C[C@H](Cl)C(=O)Nc1ccc(-c2c(-c3ccc(C(=O)N4CCCC4)cc3)c3c(N)ncnc3n2C)cc1 (single isomer, unassigned) [Example 560] | 100 to 250
C=C(C)C(=O)Nc1ccc(-c2c(-c3ccc(S(=O)(=O)N(C)C4CCCC4)cc3)c3c(N)ncnc3n2C)cc1 [Example 312] | 250 to 1000
C=CC(=O)N1CCC(c2c(-c3cnn(C(C)C)c3)c3c(N)ncnc3n2C)C1 (stereo not drawn) [Example 737] | 1000 to 100000
C=C(C)C(=O)Nc1ccc(-c2c(-c3cc(C)c(Oc4nccc(C)n4)c(OC)c3)c3c(N)ncnc3n2C)cc1 [Example 497] | ≤ 100
C=C(CN1CCOCC1)C(=O)N1CCC(n2cc(-c3c(-c4ccc(Oc5cccc(C)n5)cc4)c4c(N)ncnc4n3C)cn2)CC1 [Example 643] | 250 to 1000
C=CC(=O)N1CCC(c2c(-c3ccc(OC)cc3)c3c(N)ncnc3n2C)C1 (stereo not drawn) [Example 702] | 100 to 250
C=C(C)C(=O)Nc1ccc(-c2c(-c3ccc(C(=O)N(C)CC4(F)COC4)cc3)c3c(N)ncnc3n2C)cc1 [Example 411] | 250 to 1000
C=CC(=O)N1CCC(n2cc(-c3c(-c4ccc(Oc5cccc(C)c5)c(OC)c4)c4c(N)ncnc4n3C)cn2)CC1 [Example 672] | 250 to 1000

More lines, now with the values ahead:

IC50 [nM] | SMILES
≤ 100 | C=CC(=O)Nc1ccc(-c2c(C3=CCC(C(=O)NC4CCCC4)CC3)c3c(N)ncnc3n2C)cc1 (stereo not drawn) [Example 298]
≤ 100 | C=C(C)C(=O)Nc1ccc(-c2c(-c3ncc(Oc4nccc(C)n4)cc3F)c3c(N)ncnc3n2C)cc1 [Example 572]
100 to 250 | C=C(C)C(=O)Nc1ccc(-c2c(-c3ccc(C(=O)NC4CCCOC4)cc3)c3c(N)ncnc3n2C)cc1 (stereo not drawn) [Example 327]
250 to 1000 | C=CC(=O)Nc1ccc(-c2c(-c3ccc(Oc4ncc(CO)cn4)c(OC)c3)c3c(N)ncnc3n2C)cc1 [Example 60]
≤ 100 | C=CC(=O)Nc1ccc(-c2c(-c3ccc(Oc4ncccn4)c(CC)c3)c3c(N)ncnc3n2C)cc1 [Example 48]
≤ 100 | C=C(C)C(=O)Nc1ccc(-c2c(-c3ccc(C(=O)N4CCCC[C@H]4C)cc3)c3c(N)ncnc3n2C)cc1 [Example 293]
≤ 100 | C=C(C)C(=O)Nc1ccc(-c2c(-c3ccc(Oc4nccc(C)n4)c(F)c3)c3c(N)ncnc3n2[C@@H]2CCOC2)cc1 (single isomer, unassigned) [Example 539]
≤ 100 | C=CC(=O)N1CCC(c2c(-c3ccc(S(=O)(=O)C4CC4)cc3)c3c(N)ncnc3n2C)C1 (stereo not drawn) [Example 785]
≤ 100 | C=C(CN(C)C)C(=O)Nc1ccc(-c2c(-c3ccc(Oc4cccc(C)n4)cc3)c3c(N)ncnc3n2C)cc1 [Example 485]
≤ 100 | C=C(C)C(=O)Nc1ccc(-c2c(-c3ccc(C(=O)N(C)CC(C)C)cc3)c3c(N)ncnc3n2C)cc1 [Example 410]
100 to 250 | C=CC(=O)N1CC=C(c2c(-c3ccc(Oc4cncc(C)c4)c(OC)c3)c3c(N)ncnc3n2C)CC1 [Example 678]
≤ 100 | C=CC(=O)N1CCC(c2c(-c3ccc(SC4CCCC4)cc3)c3c(N)ncnc3n2C)C1 (stereo not drawn) [Example 749]
≤ 100 | C=C(C)C(=O)Nc1ccc(-c2c(-c3ccc(Oc4nccc(C)n4)c(F)c3)c3c(N)ncnc3n2C2CCCO2)cc1 (stereo not drawn) [Example 524]
≤ 100 | Cc1cccc(Oc2ccc(-c3c(-c4cnn(C5CCN(C(=O)/C=C/CN(C)C)CC5)c4)n(C)c4ncnc(N)c34)cc2)n1 [Example 621]
≤ 100 | C=C(C)C(=O)Nc1ccc(-c2c(-c3ccc(Oc4cccc(N)n4)cc3)c3c(N)ncnc3n2C)cc1 [Example 379]

— US11780845B2 (Relay Therapeutics, Inc., priority 2019, dated 2023)
